Experimental data from patent publication US9307761B2, “Microbial composition” (Rohm and Haas Company, priority 2011, dated 2016).
Where two headings read alike, the source gives them in different places.

Tests used:
Format in all cases: cell-based
[1] = system: Escherichia coli (E. coli—ATCC #10536); experiment: Automated assessment of efficacy in model surfactant medium (2.85% sodium cocoyl glycinate and 1.85% sodium lauroamphoacetate), 15 seconds exposure, delta OD450/OD590; conditions: for MBC: Escherichia coli, ATCC10536, 15 s, in 2.85% sodium cocoyl glycinate + 1.85% sodium lauroamphoacetate solution at pH 10, E. coli, read-out: MBC (minimum biocidal concentration); for No. of replicates showing growth (out of 4) / Δ OD 450 nm = OD450 (time = 16 hours) − OD450 (time zero), Mean / Δ OD 590 nm OD590 (time = 16 hours) − OD590 (time zero), Mean: 15 s exposure
Method: Micobiocidal Activity of Actives as Per the Invention in a Model Surfactant Medium Test Methodology for Automated Assessment of Efficacy in Surfactant Base
Solutions were prepared such that the concentrations of the surfactant components and test actives were 1.1×the final desired concentration in order to allow for dilution with the bacterial inoculum in the test. The solutions were manually adjusted to […] by dropwise addition of sodium hydroxide solution, as measured with a pH meter at ambient temperature.
Tests were conducted using standard microtiter plate assays using an automated liquid handling system, 270 μl of the surfactant test solution was pipetted into each well of the microtitre plate and 30 μl of the bacterial suspension was then added. After exactly 15 seconds of bacterial exposure, a 30 μl volume of bacterial cells was withdrawn and transferred to 270 μl of D/E quench solution. After 5 minutes in the D/E quench, the optical density (OD) was measured for each plate in turn at two specific wavelengths (450 nm and 590 nm). These provide a dual check of antimicrobial activity, as the OD450 reading is specific for the yellow colour of D/E quench when bacterial growth is observed, whereas OD590 is specific for the initial purple colour of the D/E quench which is retained if no bacterial growth is observed. After the time zero OD measurements, plates were then incubated at 37° C. overnight (16 hours) before repeating the OD measurements. Delta OD values were calculated by subtracting […]. Bacterial growth is observed as art increase in OD450 and a decrease in ΔOD590. To identify antibacterially efficacious systems (those preventing appreciable bacterial growth after incubation), the following threshold changes in OD readings have been adopted: if (1). OD450 increases by less than 0.2 absorbance unit on incubation and (2). OD590 decreases by less than 0.35 unit on incubation. Conversely, where OD450 increases by more than 0.2 AU and OD590 decreases by more than 0.35 unit after incubation, corresponding to a colour shift from purple to yellow, the test system allows bacterial growth and is not deemed efficacious, four replicate measurements in the same plate have been made for each test system. The number of replicate wells showing either bacterial growth or no growth is also readily assessed by eye by following the colour change.
Dose responses for individual components and binary mixtures of actives at a fixed concentration ratio were generated by sequential dilution of liquors with further surfactant solution to obtain a series of endpoints.
In some selected cases, the combinations were also tested at the weight ratio 1:1.

[2] = system: Escherichia coli (E. coli—ATCC #10536); experiment: Synergy tests: high resolution MBC microtiter plate assay, 15 seconds contact, phosphate buffer containing […] dipropylene glycol
Source text: The concentrations and ratios may also vary under different test conditions or with different test methods.
One measure of synergy is the industrially accepted method described by Kull, F. C.; Eisman, P. C.; Sylwestrowicz, H. D. and Mayer, R. L., in Applied Microbiology 9:538-541 (1961), using the ratio determined by the formula: Qa/QA+Qb/QB=Synergy Index (“SI”) wherein: • QA=concentration of compound A (first component) in percent, acting alone, which produced an end point (MBC of Compound A). • Qa=concentration of compound A in percent, in the mixture, which produced an end point. • QB=concentration of compound B (second component) in percent, acting alone, which produced an end point (MBC of Compound B). • Qb=concentration of compound B in percent, in the mixture, which produced an end point.
When the sum of Qa/QA and Qb/QB is greater than one, antagonism is indicated. […] The lower the SI, the greater is the synergy shown by that particular mixture. The minimum biocidal concentration (MBC) of a microbicide is the lowest concentration tested under a specific set of conditions that provides complete kill of the tested microorganisms.
Synergy tests were conducted using standard microtiter plate assays with phosphate buffer containing 3.5% dipropylene glycol (DPG). In this method, a wide range of combinations of chemicals was tested by conducting high resolution MBC assays of Component (A) in the presence of various concentrations of Component (B). High resolution MBCs were determined by adding varying amounts of microbicide to one column of a microtiter plate and doing subsequent […] dilutions using an automated liquid handling system to obtain a series of closely spaced endpoints. The MBC plate was inoculated one column at a time with the test microorganism. An aliquot of the inoculated well was transferred at 15 seconds to a plate containing a neutralizing agent (D/E Neutralizing Broth), mixed and held for 5 minutes before being transferred to a growth plate containing trypticase soy broth (TSB). The TSB plate was incubated at 37° C. and read for the presence/absence of growth at 24 hours. The lowest level tested that provided complete kill (as evidenced by no growth in the microtitre plate) of the test organisms in 15 seconds is the minimum biocidal concentration (MBC).
The synergy of the combinations of the present invention was determined against a bacterium, Escherichia coli (E. coli—ATCC #10536), at a concentration of approximately 1×10^8 bacteria, per mL. This microorganism is representative of natural contaminants in many consumer and industrial applications.

[3] = system: Escherichia coli (10536 strain); experiment: 15 seconds contact kill assay of actives in water, mean bacterial survival NMBS; conditions: E. coli; for NMBS: alone, 15 seconds contact; for MBC (minimum biocidal concentration): in water, component alone
[4] = system: S. aureus; experiment: Synergy of terpinyl alcohols with phenolic compounds in water against S. aureus, log reduction after 15 seconds contact
Method: The procedure used was as follows:
Liquid actives were used directly. Solid actives were dissolved in alcohol and a 50% stock was made.
Preparation of Test Cultures:
The culture was grown overnight in Tryptone soya agar.
To 9 ml water the actives were added to give the desired concentration. 1 ml of the culture was added and mixed. After 15 seconds contact 1 ml aliquot was removed and added to a neutraliser and kept for 5 minutes. A control of untreated cells was similarly processed. It was then diluted and plated. The plates were incubated at 37° C. for 24 hours. The colonies on the plates were counted. The counts were converted to log10. The log no. of survivors was determined and log reduction calculated.

[5] = system: Staphylococcus aureus (10788 strain); experiment: Antimicrobial efficacy of actives against S. aureus in water, 15 seconds contact; conditions: for MBC (minimum biocidal concentration): against S. Aureus, in water; for NMBS: S. aureus
[6] = single active alone at 0.125% w/v, water
[7] = single active alone at 0.05% w/v, model surfactant solution
[8] = single active alone at 0.1% w/v, model surfactant solution
[9] = single active alone at […] w/v, model surfactant solution
[10] = single active alone at 0.2% w/v, model surfactant solution

CCCCc1ccc(O)cc1 [4-n-butylphenol]
MBC [1]: > 2000 µg/mL | MBC of the component acting alone (QA or QB) ([2]; E. coli 10536, component alone, complete kill in 15 seconds): 0.2 weight % | NMBS ([3]; 0.0125% w/v): 7.85 log CFU/ml | MBC (minimum biocidal concentration) [3]: 0.25 % w/v | NMBS ([3]; […] w/v): 0 log CFU/ml

C=C(C)[C@@H]1CC=C(CO)CC1 [perillyl alcohol]
Log reduction S. aureus ATCC 6538 ([4]; terpinyl alcohol alone at […]): −0.6

CCC(C)c1ccc(O)cc1 (stereo not drawn) [4-sec butyl phenol]
Log reduction S. aureus ATCC 6538 ([4]; phenolic compound alone at 0.05%): 0.0

C=C(C)[C@@H]1CC=C(CO)CC1 [(4S)-(4-(prop-1-en-2-yl)cyclohex-1-enyl)methanol]
MBC [1]: 4000 µg/mL | MBC of terpene alcohol ([1]; terpene alcohol alone, complete bacterial kill against E. coli, model surfactant solution): 0.4 % (w/v) | SI (Synergy Index = Qa/QA + Qb/QB) ([2]; E. coli 10536, at Qa and Qb, <1 synergy, 1 additivity, >1 antagonism): 1.00 | MBC (minimum biocidal concentration) [5]: >1.0 % w/v | NMBS [5, 6]: 7.19 log CFU/ml | NMBS ([5]; single active alone at 0.4% w/v, water): 7.14 log CFU/ml | NMBS ([5]; single active alone at 0.625% w/v, water): 7.15 log CFU/ml | NMBS ([5]; single active alone at 1.0% w/v, water): 7.39 log CFU/ml | MBC of terpene alcohol ([5]; terpene alcohol alone, complete bacterial kill against S. aureus, water): 1.0 % (w/v)

CCCc1ccccc1O [2-n-propylphenol]
No. of replicates showing growth (out of 4) [1, 7]: 4 | Δ OD 450 nm = OD450 (time = 16 hours) − OD450 (time zero), Mean [1, 7]: −1.43 | Δ OD 590 nm OD590 (time = 16 hours) − OD590 (time zero), Mean [1, 7]: 0.46 | No. of replicates showing growth (out of 4) [1, 8]: 4 | Δ OD 450 nm = OD450 (time = 16 hours) − OD450 (time zero), Mean [1, 8]: −1.42 | Δ OD 590 nm OD590 (time = 16 hours) − OD590 (time zero), Mean [1, 8]: 0.46 | No. of replicates showing growth (out of 4) [1, 9]: 4 | Δ OD 450 nm = OD450 (time = 16 hours) − OD450 (time zero), Mean [1, 9]: −1.15 | Δ OD 590 nm OD590 (time = 16 hours) − OD590 (time zero), Mean [1, 9]: 0.66 | NMBS ([3]; 0.05% w/v): 7.71 log CFU/ml | NMBS ([3]; 0.125% w/v): 0 log CFU/ml | MBC (minimum biocidal concentration) [3]: 0.125 % w/v | NMBS ([3]; […] w/v): 0 log CFU/ml | MBC (minimum biocidal concentration) [5]: 0.25 % w/v | MBC of phenol ([5]; phenol alone, complete bacterial kill against S. aureus, water): 0.25 % (w/v) | NMBS ([5]; single active alone at 0.1% w/v, water): 7.30 log CFU/ml | NMBS [5, 6]: 7.19 log CFU/ml | NMBS ([5]; single active alone at […] w/v, water): 0 log CFU/ml

Cc1ccc(C(C)C)cc1O [5-isopropyl-2-methylphenol]
No. of replicates showing growth (out of 4) [1, 8]: 4 | Δ OD 450 nm = OD450 (time = 16 hours) − OD450 (time zero), Mean [1, 8]: −0.52 | Δ OD 590 nm OD590 (time = 16 hours) − OD590 (time zero), Mean [1, 8]: 0.62 | No. of replicates showing growth (out of 4) [1, 10]: 4 | Δ OD 450 nm = OD450 (time = 16 hours) − OD450 (time zero), Mean [1, 10]: −0.52 | Δ OD 590 nm OD590 (time = 16 hours) − OD590 (time zero), Mean [1, 10]: 0.62 | No. of replicates showing growth (out of 4) [1, 9]: 4 | SI (Synergy Index = Qa/QA + Qb/QB) [2]: 1.00
